Legend:
CaSR de rat = target: T1, CaSR de rat (Rattus norvegicus, UniProt P48442); test: Accumulation of tritiated inositol phosphates ([3H]IP) in transfected CHO(CaSR) cells; type: cell-based; conditions: compound 10 µM; for activation at 10 µM: read-out: Accumulation d'(^3H)-IP % de la réponse 10mM Ca^2+ ± E.S.; for Accumulation d'(^3H)-IP % du taux basal. CHO (CaSR) / activity at 10 µM: basal level in presence of 2 mM Ca^2+ = 100 %; for activity at 10 µM: read-out: Accumulation d'(^3H)-IP % du taux basal. CHO (CaSR)
T1 construct: expressed in transfected cells; host or cells: CHO (Chinese hamster ovary) cells, line CHO(CaSR)
T1 sequence (P48442 20-1079): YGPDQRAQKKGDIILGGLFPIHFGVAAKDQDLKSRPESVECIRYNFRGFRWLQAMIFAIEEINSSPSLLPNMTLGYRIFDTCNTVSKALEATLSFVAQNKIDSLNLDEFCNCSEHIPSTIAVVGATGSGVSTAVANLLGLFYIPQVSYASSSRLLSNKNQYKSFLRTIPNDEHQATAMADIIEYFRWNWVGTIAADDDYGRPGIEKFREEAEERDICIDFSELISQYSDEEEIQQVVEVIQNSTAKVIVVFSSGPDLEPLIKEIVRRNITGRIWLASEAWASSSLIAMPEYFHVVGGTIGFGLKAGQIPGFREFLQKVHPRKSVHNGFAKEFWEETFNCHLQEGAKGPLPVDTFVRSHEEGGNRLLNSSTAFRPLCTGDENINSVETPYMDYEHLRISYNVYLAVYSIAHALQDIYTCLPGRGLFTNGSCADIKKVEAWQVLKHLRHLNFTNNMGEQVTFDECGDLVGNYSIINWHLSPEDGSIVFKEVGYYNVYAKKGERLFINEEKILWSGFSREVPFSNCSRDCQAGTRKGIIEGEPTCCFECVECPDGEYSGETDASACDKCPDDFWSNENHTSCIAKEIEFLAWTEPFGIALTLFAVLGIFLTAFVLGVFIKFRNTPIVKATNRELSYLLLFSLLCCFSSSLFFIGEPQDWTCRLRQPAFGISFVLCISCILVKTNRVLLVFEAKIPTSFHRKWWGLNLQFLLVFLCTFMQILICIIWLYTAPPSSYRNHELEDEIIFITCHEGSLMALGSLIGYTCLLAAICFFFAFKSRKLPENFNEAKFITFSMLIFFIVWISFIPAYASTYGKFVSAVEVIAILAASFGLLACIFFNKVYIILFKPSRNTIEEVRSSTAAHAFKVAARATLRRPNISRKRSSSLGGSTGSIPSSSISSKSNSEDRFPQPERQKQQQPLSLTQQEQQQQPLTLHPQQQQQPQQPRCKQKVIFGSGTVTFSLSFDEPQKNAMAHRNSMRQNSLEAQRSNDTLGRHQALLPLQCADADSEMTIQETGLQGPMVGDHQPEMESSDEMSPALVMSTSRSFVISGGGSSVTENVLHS
From the text: L'ADN complémentaire codant pour le CaSR de rat a été isolé à partir d'une banque ADNc de striatum de rat (Ruat et al, Proc. Natl. Acad. Sci., 1995). Ce récepteur est identique au niveau de sa séquence en acides aminés à celui exprimé dans les autres tissus. Des cellules ovariennes de hamster chinois (CHO) transfectées exprimant le CaSR de rat (CHO(CaSR)) ont été caractérisées et les signaux chimiques (seconds messagers) induits par l'activation de ce récepteur ont été analysés. Ainsi, un test biochimique permettant de mesurer l'accumulation d'inositols phosphates tritiés [^3H]IP en réponse à l'activation du récepteur a été mis au point (Ruat et al, J. Biol. Chem., 1996; Ferry et al, Biochem. Biophys. Res. Commun., 1997).
L'activité calcimimétique des composés a été estimée en mesurant l'accumulation d'inositols phosphates tritiés induite par 10 µM de chacun des composés en présence de 2 mM de Ca^2+ dans les cellules CHO(CaSR) (Ferry et al, Biochem Biophys Res Commun, 1997).
Cette activation a été comparée à celle induite par le composé NPS-R- 568, un calcimimétique de référence et utilisé à une concentration de 10 µM (Tableau 1) (Ferry et al, Biochem Biophys Res Commun, 1997; Nemeth et al, Proc Natl Acad Sci USA, 1997).
Dans le tableau 1, l'activité calcimimétique des composés PHD est comparée à celle d'un composé de référence, le NPS-R-568 utilisé à la même concentration et dans les mêmes conditions expérimentales. Cette activité est exprimée en pourcentage de l'activité de 10 mM de Ca^2+. Les moyennes ± erreurs standards de 2 à 5 manipulations indépendantes sont indiquées. Les expériences ont été réalisées en présence de 2 mM de Ca^2+.
(§1) L'accumulation d'inositols phosphates tritiés est exprimée en pourcentage du taux de base observé en présence de 2 mM Ca^2+ (100 %) dans les cellules CHO(WT*) ou CHO(CaSR).

cellules CHO(WT*) = test: Specificity control: [3H]IP accumulation in CHO(WT*) control cells transfected with the plasmid alone, not expressing CaSR; type: cell-based, hamster chinois; conditions: compound 10 µM, basal level in presence of 2 mM Ca^2+ = 100 %; for activity at 10 µM: read-out: Accumulation d'(^3H)-IP % du taux basal. CHO (WT*)
Procedure: Les molécules PHD, utilisées à une concentration de 10 µM ne conduisent pas ou peu à l'accumulation d'[^3H]IP dans des cellules CHO(WT*) témoins ce qui suggère leur spécificité d'action vis-à-vis du CaSR (Tableau 2). Les cellules CHO(WT*) ont été tranfectées avec le plasmide seul et n'expriment pas le CaSR.
as §1

[1] = in presence of 2 mM Ca^2+, mean ± standard error of 2 to 5 independent experiments

SMILES	activation at 10 µM (CaSR de rat; [1]) [%]	further results
CC(NCC(Cc1ccccc1)NCc1ccccc1F)c1cccc2ccccc12 (stereo not drawn) [PHD 323]	90 ± 8	
COc1cccc([C@@H](C)NC(CNS(=O)(=O)c2ccc(C)cc2)c2ccccc2)c1 (stereo partly drawn) [PHD 178 A]	6 ± 6	
COc1ccc(CC(CNC(C)c2cccc3ccccc23)NS(=O)(=O)c2ccc(OC)cc2)cc1 (stereo not drawn) [PHD 267]	45 ± 1	
COc1ccc(S(=O)(=O)NC(CCc2ccccc2)CNC(C)c2cccc3ccccc23)cc1 (stereo not drawn) [PHD 218]	39 ± 1	
CC(NCC(N)Cc1ccccc1)c1ccccc1 (stereo not drawn) [PHD 90]	3 ± 2	
COc1ccc(S(=O)(=O)NC(C)CNC(C)c2cccc3ccccc23)cc1 (stereo not drawn) [PHD 280]	30 ± 2	
Cc1ccc(S(=O)(=O)NC(CNC(C)c2cccc3ccccc23)Cc2ccccc2)cc1 (stereo not drawn) [PHD 181]	68 ± 9	
CC(NCC(Cc1ccccc1)NS(=O)(=O)c1cccs1)c1cccc2ccccc12 (stereo not drawn) [PHD 316]	78 ± 1	
Cc1ccc(S(=O)(=O)NC(CNC(C)c2cccc3ccccc23)c2ccccc2)cc1 (stereo not drawn) [PHD 176 B]	31 ± 3	
CC(NCC(Cc1ccccc1)NS(C)(=O)=O)c1cccc2ccccc12 (stereo not drawn) [PHD 322]	57 ± 6	
COc1cccc([C@@H](C)NCC(NS(=O)(=O)c2ccc(C)cc2)c2ccccc2)c1 (stereo partly drawn) [PHD 178 B]	22 ± 10	
CC(NCC(Cc1ccccc1)NS(=O)(=O)c1ccc(C(F)(F)F)cc1)c1cccc2ccccc12 (stereo not drawn) [PHD 304]	29 ± 2	
Cc1ccc(S(=O)(=O)NCC(NC(C)c2cccc3ccccc23)c2ccccc2)cc1 (stereo not drawn) [PHD 176 A]	6 ± 1	
C[C@@H](NCC(Cc1ccccc1)NS(=O)(=O)c1ccc([N+](=O)[O-])cc1)c1ccccc1 (single isomer, unassigned) [PHD 127 A]	12 ± 5	
C[C@@H](NCC(Cc1ccccc1)NS(=O)(=O)c1ccc([N+](=O)[O-])cc1)c1ccccc1 (single isomer, unassigned) [PHD 127 B]		Accumulation d'(^3H)-IP % de la réponse 10mM Ca^2+ ± E.S. (CaSR de rat; [1]): 13 ± 3%
COc1ccc(S(=O)(=O)NC(CNC(C)c2cccc3ccccc23)Cc2ccccc2)cc1OC (stereo not drawn) [PHD 321, N^2(3,4-diméthoxybenzènesulfonyl)-N^1[1-(1-naphtyl)éthyl]-3-phénylpropane-1,2-diamine]	97 ± 13	Accumulation d'(^3H)-IP % du taux basal. CHO (CaSR) (CaSR de rat): une forte accumulation; activity at 10 µM (CaSR de rat): 446 ± 22%; Accumulation d'(^3H)-IP % du taux basal. CHO (WT*) (cellules CHO(WT*)): peu ou pas d'accumulation; activity at 10 µM (cellules CHO(WT*)): 124 ± 4%
COc1ccc(S(=O)(=O)NC(CNC(C)c2cccc3ccccc23)Cc2ccccc2OC)cc1 (stereo not drawn) [PHD 230]	65 ± 2	
CC(NCC(Cc1ccccc1)NS(=O)(=O)c1ccc([N+](=O)[O-])cc1)c1ccccc1 (stereo not drawn) [PHD 87]	8 ± 4	
COc1ccc(S(=O)(=O)NC(CNC(C)c2cccc3ccccc23)Cc2ccccc2)cc1 (stereo not drawn) [PHD 206]	80 ± 12	
CC(NCC(Cc1ccccc1)NS(=O)(=O)c1ccc(Cl)cc1)c1cccc2ccccc12 (stereo not drawn) [PHD 203]	38 ± 20	

SMILES	activation at 10 µM (CaSR de rat; [1]) [%]	further results
Cc1ccc(S(=O)(=O)NC(CNC(C)c2ccccc2)Cc2ccccc2)cc1 (stereo not drawn) [PHD 121]	23 ± 15	
CC(NS(=O)(=O)c1ccc2ccccc2c1)c1cccc2ccccc12 (stereo not drawn) [PHD 317]	29 ± 13	
CC(NCC(Cc1ccccc1)NCc1ccccc1Cl)c1cccc2ccccc12 (stereo not drawn) [PHD 307, N^2-(2-Chlorobenzyl)-N^1-[1-(1-naphtyl)éthyl]-3-phénylpropane-1,2-diamine]	98 ± 8	Accumulation d'(^3H)-IP % du taux basal. CHO (CaSR) (CaSR de rat): une forte accumulation; activity at 10 µM (CaSR de rat): 393 ± 28%; Accumulation d'(^3H)-IP % du taux basal. CHO (WT*) (cellules CHO(WT*)): peu ou pas d'accumulation; activity at 10 µM (cellules CHO(WT*)): 134 ± 11%
CC(NCC(Cc1ccccc1)NS(=O)(=O)c1ccccc1C(F)(F)F)c1cccc2ccccc12 (stereo not drawn) [PHD 306]	48 ± 9	
CC(NCC(Cc1ccccc1)NCc1ccccc1)c1cccc2ccccc12 (stereo not drawn) [PHD 285]	80 ± 8	
COc1ccc(S(=O)(=O)NC(CNC(C)c2cccc3ccccc23)Cc2ccccc2Cl)cc1 (stereo not drawn) [PHD 242]	60 ± 4	
COc1ccc(S(=O)(=O)NC(CNC(C)c2cccc3ccccc23)Cc2cccc(C)c2OC)cc1 (stereo not drawn) [PHD 235]	37 ± 5	
CC(NCC(Cc1ccccc1)NS(=O)(=O)c1cccc(Cl)c1)c1cccc2ccccc12 (stereo not drawn) [PHD 308]	83 ± 4	Accumulation d'(^3H)-IP % du taux basal. CHO (CaSR) (CaSR de rat): une forte accumulation; activity at 10 µM (CaSR de rat): 314 ± 13%; Accumulation d'(^3H)-IP % du taux basal. CHO (WT*) (cellules CHO(WT*)): peu ou pas d'accumulation; activity at 10 µM (cellules CHO(WT*)): 124 ± 9%
CC(NCC(Cc1ccccc1)NS(=O)(=O)c1ccc2ccccc2c1)c1cccc2ccccc12 (stereo not drawn) [PHD 318]	34 ± 2	
CC(NCC(Cc1ccccc1)NS(=O)(=O)c1ccccc1)c1cccc2ccccc12 (stereo not drawn) [PHD 202]	78 ± 10	
CC(NCC(Cc1ccccc1)NS(=O)(=O)c1ccc(N)cc1)c1ccccc1 (stereo not drawn) [PHD 125]	2 ± 4	
COc1ccc(S(=O)(=O)NC(CNC(C)c2cccc3ccccc23)Cc2ccc3c(c2)OCO3)cc1 (stereo not drawn) [PHD 271]	47 ± 2	
CC(NCC(Cc1ccccc1)NS(=O)(=O)c1ccccc1Cl)c1cccc2ccccc12 (stereo not drawn) [PHD 301]	79 ± 10	Accumulation d'(^3H)-IP % du taux basal. CHO (CaSR) (CaSR de rat): une forte accumulation; activity at 10 µM (CaSR de rat): 304 ± 18%; Accumulation d'(^3H)-IP % du taux basal. CHO (WT*) (cellules CHO(WT*)): peu ou pas d'accumulation; activity at 10 µM (cellules CHO(WT*)): 119 ± 6%
CC(NCC(Cc1ccccc1)NS(=O)(=O)c1cccc2ccccc12)c1cccc2ccccc12 (stereo not drawn) [PHD 319]	31 ± 7	
CC(NCC(Cc1ccccc1)NCc1cccc(Cl)c1)c1cccc2ccccc12 (stereo not drawn) [PHD 312]	78 ± 6	Accumulation d'(^3H)-IP % du taux basal. CHO (CaSR) (CaSR de rat): une forte accumulation; activity at 10 µM (CaSR de rat): 383 ± 39%; Accumulation d'(^3H)-IP % du taux basal. CHO (WT*) (cellules CHO(WT*)): peu ou pas d'accumulation; activity at 10 µM (cellules CHO(WT*)): 121 ± 6%
COc1cccc([C@@H](C)NCC(Cc2ccccc2)NS(=O)(=O)c2ccc(C)cc2)c1 (stereo partly drawn) [PHD 182]	36 ± 12	
COc1ccc(S(=O)(=O)NC(CN[C@H](C)c2cccc(OC)c2)Cc2ccccc2)cc1 (stereo partly drawn) [PHD 217]	34 ± 5	
CC(NCC(Cc1ccccc1)NS(=O)(=O)c1ccc([N+](=O)[O-])cc1)c1cccc2ccccc12 (stereo not drawn) [PHD 124]	27 ± 11	
CC(NCC(Cc1ccccc1)NCc1ccc(F)cc1)c1cccc2ccccc12 (stereo not drawn) [PHD 320]	95 ± 4	
COc1ccc(S(=O)(=O)NCCNC(C)c2cccc3ccccc23)cc1 (stereo not drawn) [PHD 288]	45 ± 3	

Reference: EP1235797B1, “ARALKYL-1,2-DIAMINES HAVING CALCIMIMETIC ACTIVITY AND PREPARATION MODE” (CENTRE NATIONAL DE LA RECHERCHE SCIENTIFIQUE (CNRS), priority 1999, dated 2001)
